Like-named read-outs stand apart in the source and are kept apart here. Blank lines part the entries; values can stand above or below the molecule they belong to.
Tests used:
CYP2C9 [1] = target: T1, CYP2C9 (Homo sapiens, UniProt P11712); experiment: in vitro; conditions: microsomes, pH 7.5
Experimental: (§1) Supplementary Section S1. Marker reactions for CYP2C19, CYP2C9 and CYP3A4 […]
(§2) for CYP3A4 [1,2] were used to determine (i) intersystem extrapolation factors (ISEF), (ii) […]
(§3) (i) Experiments for the determination of Michaelis-Menten kinetics in HLM were performed at protein concentrations of 0.02, 0.04 and 0.05 mg/mL for the marker reactions of CYP2C19, CYP2C9 and CYP3A4 (n = 3 each), respectively. Two samples were taken from each incubation after 15 and 25 min for investigations on CYP2C19, after 5 and 10 min for CYP2C9 and after 7 and 12 min for CYP3A4, respectively. […]
(§4) were applied as substrate concentrations. […]

[2] = target: CYP2C9 in human liver microsomes (HLM) (Homo sapiens, UniProt P11712); experiment: in vitro; conditions: pH 7.5
Experimental: as §1, §2, §3, §4

CYP2C9 [3] = target: T1, CYP2C9; conditions: recombinant enzyme, pH 7.5
Experimental: as §1, §2, §3
were applied as substrate concentrations.
For investigations in rhCYP concentrations of 2.5 pmol/mL rhCYP2C19 (n = 3), […]
respectively. […]

[4] = tested on: human liver microsomes (HLM); experiment: Metabolic stability of voriconazole N-oxide and hydroxyvoriconazole in HLM; assay type: in vitro ADME; conditions: HLM 0.2 mg/mL
Experimental: An incubation without HLM served as a control (n = 1).

HLM, HIM and rhCYP = experiment: Pre-investigations of metabolite formation from VRC in HLM, HIM and rhCYP; assay type: in vitro ADME, human
Excerpt: As an essential prerequisite, the linearity of metabolite formation with regard to reaction time and enzyme concentration, as well as the absence of substrate depletion (<10%), were investigated.

[5] = cited from earlier work
CYP2C19 [6] = target: T2, CYP2C19 (Homo sapiens, UniProt P33261); experiment: IC50 and IC50 shift on CYP2C19 marker reaction (S-mephenytoin 4-hydroxylation) in HLM; assay type: in vitro ADME; design: tissue Corning Inc; host or cells: pooled human liver microsomes (150 donors)
Experimental: (§5) Remaining activity (A, %) was calculated as the ratio of reaction velocities in the inhibited and non-inhibited incubations. IC50 and the steepness of the inhibition curve (H) were estimated by fitting the four-parameter inhibition model to the experimental data (Equation (9)). Maximum (Amax) and baseline activity (A0) were fixed to 100 and 0, respectively. […] (9) A,%=A0+Amax−A0/1+logCInhib/logIC50^H=100/1+logCInhib/logIC50^H […]
as §1, §2
(§6) Each probe substrate was incubated in the presence of each inhibitor. […]
(§7) were performed at concentrations of 0.2, 0.08 and 0.05 mg/mL HLM for CYP2C19, CYP2C9 and CYP3A4, respectively. IC50 and IC50 shift assays were performed at substrate […]
(§8) Reaction times were identical to those described

CYP2C9 [7] = target: T1, CYP2C9; experiment: IC50 and IC50 shift on CYP2C9 marker reaction (diclofenac 4-hydroxylation) in HLM; assay type: in vitro ADME; design: tissue Corning Inc; host or cells: pooled human liver microsomes (150 donors)
Experimental: as §5
Supplementary Section S1. […]
Two samples were taken
from each incubation after 15 and 25 min for investigations on CYP2C19, after 5 and
10 min for CYP2C9 and after 7 and 12 min for CYP3A4, respectively. […]
CYP2C9 and CYP3A4, respectively. IC50 and IC50 shift assays were performed at substrate
as §8

CYP3A4 [8] = target: T3, CYP3A4 (Homo sapiens, UniProt P08684); experiment: IC50 and IC50 shift on CYP3A4 marker reaction (midazolam 1-hydroxylation) in HLM; assay type: in vitro ADME; design: tissue Corning Inc; host or cells: pooled human liver microsomes (150 donors); conditions: for IC50 shift: human, human liver microsomes, pH 7.5, probe midazolam 1-hydroxylation (4.60 µM midazolam)
T3 sequence (P08684 2-503 limits assumed): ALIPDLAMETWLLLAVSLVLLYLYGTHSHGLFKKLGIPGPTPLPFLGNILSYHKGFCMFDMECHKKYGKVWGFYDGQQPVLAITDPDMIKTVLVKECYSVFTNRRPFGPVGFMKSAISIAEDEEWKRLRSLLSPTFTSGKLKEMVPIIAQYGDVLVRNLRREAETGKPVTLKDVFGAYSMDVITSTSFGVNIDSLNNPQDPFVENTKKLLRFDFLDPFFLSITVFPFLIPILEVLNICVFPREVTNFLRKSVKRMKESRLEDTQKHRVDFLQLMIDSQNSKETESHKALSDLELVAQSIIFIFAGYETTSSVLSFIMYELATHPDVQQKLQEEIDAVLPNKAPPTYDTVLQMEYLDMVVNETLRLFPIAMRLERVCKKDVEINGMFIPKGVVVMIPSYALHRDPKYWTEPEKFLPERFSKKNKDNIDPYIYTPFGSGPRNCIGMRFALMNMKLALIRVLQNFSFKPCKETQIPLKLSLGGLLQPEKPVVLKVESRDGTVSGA
Experimental: as §5, §1, §2
Two samples were taken […]
from each incubation after 15 and 25 min for investigations on CYP2C19, after 5 and 10 min for CYP2C9 and after 7 and 12 min for CYP3A4, respectively. […]
CYP2C9 and CYP3A4, respectively. IC50 and IC50 shift assays were performed at substrate […]
as §8

CYP2C19 [9] = target: T2, CYP2C19; experiment: Type of reversible inhibition and Ki on CYP2C19 (S-mephenytoin 4-hydroxylation) in HLM; assay type: in vitro ADME; design: tissue Corning Inc; host or cells: pooled human liver microsomes (150 donors)
Experimental: (§9) Reaction velocities were investigated in function of the substrate ([S]) and inhibitor ([I]) concentration to determine KM, Vmax and Ki of the reaction. The obtained data were used to fit the three main models of reversible inhibition, i.e., competitive (Equation (10)), noncompetitive (Equation (11)) and uncompetitive (Equation (12)) using the “nls” function in R. The type of inhibition was determined according to the best model fit assessed with Akaike’s information criteria (AIC). […] (10) V=Vmax/1+KM/S1+I/Ki (11) V=Vmax/1+KM/S1+I/Ki (12) V=Vmax/1+KM/S+I/Ki […]
as §1, §2, §3, §4, §6, §7, §8

CYP2C9 [10] = target: T1, CYP2C9; experiment: Type of reversible inhibition and Ki on CYP2C9 (diclofenac 4-hydroxylation) in HLM; assay type: in vitro ADME; design: tissue Corning Inc; host or cells: pooled human liver microsomes (150 donors)
Experimental: as §9, §1, §2, §3, §4, §6, §7, §8

CYP3A4 [11] = target: T3, CYP3A4; experiment: Type of reversible inhibition and Ki on CYP3A4 (midazolam 1-hydroxylation) in HLM; assay type: in vitro ADME; design: tissue Corning Inc; host or cells: pooled human liver microsomes (150 donors); conditions: CYP3A4
Experimental: as §9, §1, §2, §3, §4, §6, §7, §8

[12] = tested on: human liver microsomes (HLM); conditions: mean over voriconazole 0.5, 1, 2, 3 µM
[13] = tested on: CYP2C19 (loratadine), CYP2C9 (sulfaphenazole), CYP3A4 (ketoconazole); experiment: in vitro; conditions: human; for inhibition at 3 µM: pH 7.5; for activity: pH 7.5, % of Uninhibited Control (voriconazole N-oxidation velocity), HLM
not read = substrate: C[C@@H](c1ncncc1F)[C@](O)(Cn1cncn1)c1ccc(F)cc1F; experiment: not read; conditions: other: N-oxidation of voriconazole
[14] = 30 min pre-incubation in the absence of NADPH
[15] = 30 min pre-incubation in the absence of NADPH, read-out: IC50 NADPH (−) (95% Confidence Interval)
[16] = 30 min pre-incubation in the presence of NADPH
[17] = 30 min pre-incubation in the presence of NADPH, read-out: IC50 NADPH (+) (95% Confidence Interval)

microsomal CLint (CYP2C9 [1]): 408 µL/min/mg
Vmax,HLM (95% CI) [2]: 1693 pmol/min/mg
CLint, rhCYP (CYP2C9 [3]): 5.89 µL/min/pmol
Molecule: O=C(O)Cc1ccccc1Nc1c(Cl)cccc1Cl [Diclofenac, diclofenac]

depletion over time when incubated directly with HLM ([4]; 5-60 min, 0.137 and 1.10 µM): no depletion
% compared to a control incubation without HLM after 60 min ([4]; high concentration (1.10 µM), single replicates): 94.7%
OH–VRC formation from VRC (HLM, HIM and rhCYP): not observed
IC50 Shift NADPH (−) (CYP2C19 [6]; [14]): 1.17
IC50 (CYP2C19 [6]; [15]): > 34.2 µM
IC50 Shift NADPH (+) (CYP2C19 [6]; [16]): 1.24
IC50 (CYP2C19 [6]; [17]): 33.6 µM
time dependence of inhibition (CYP2C19 [6]; IC50 shift assay): Time-independent inhibition
IC50 (CYP2C19 [6]; without pre-incubation, […] S-mephenytoin, HLM, NO and OH–VRC estimates exceed applied concentrations (max 34.2 µM), read-out: IC50 (95% Confidence Interval)): > 34.2 µM
IC50 (CYP2C9 [7]; [15]): 3.68 µM
IC50 (CYP2C9 [7]; [17]): 3.64 µM
time dependence of inhibition (CYP2C9 [7]; IC50 shift assay): Time-independent inhibition
IC50 shift (CYP2C9 [7]; human, human liver microsomes, pH 7.5, probe diclofenac 4-hydroxylation (4.73 µM diclofenac), 30 min pre-incubation in the absence of NADPH): 0.997
IC50 shift at 30 min (CYP2C9 [7]; human, human liver microsomes, pH 7.5, probe diclofenac (4-hydroxylation), 4.73 µM, 30 min pre-incubation in the presence of NADPH): 1.01
IC50 (CYP2C9 [7]; without pre-incubation, 4.73 µM diclofenac, HLM, read-out: IC50 (95% Confidence Interval)): 3.67 µM
IC50 Shift NADPH (−) (CYP3A4 [8]; [14]): 1.76
IC50 (CYP3A4 [8]; [15]): 579 nM
IC50 (CYP3A4 [8]; [17]): 1570 nM
time dependence of inhibition (CYP3A4 [8]; IC50 shift assay): Time-independent inhibition
IC50 shift (CYP3A4 [8]; [14]): > 1.5
IC50 shift (CYP3A4 [8]; [16]): 0.65
IC50 (CYP3A4 [8]; without pre-incubation, 4.60 µM midazolam, HLM, read-out: IC50 (95% Confidence Interval)): 1020 nM
Type of Reversible Inhibition (CYP2C19 [9]; CYP2C19, best model fit by AIC): competitive
inhibitory effect on CYP2C19 relative to VRC (fold lower, from Ki) (CYP2C19 [9]; compared to VRC): 6.1 fold
Ki (CYP2C19 [9]; read-out: Ki (95% CI)): 11.6 µM
Type of Reversible Inhibition (CYP2C9 [10]; CYP2C9, best model fit by AIC): competitive
Ki (CYP2C9 [10]; read-out: Ki (95% CI)): 2800 nM
Type of Reversible Inhibition (CYP3A4 [11]; best model fit by AIC): noncompetitive
Ki (CYP3A4 [11]; midazolam 1-hydroxylation, HLM, read-out: Ki (95% CI)): 2530 nM
Molecule: C[C@@H](c1ncnc(O)c1F)[C@](O)(Cn1cncn1)c1ccc(F)cc1F [OH–VRC, hydroxyvoriconazole]
plasma concentrations, fold lower than those of NO [5]: up to 30 fold

Molecule: CC(=O)N1CCN(c2ccc(OCC3COC(Cn4ccnc4)(c4ccc(Cl)cc4Cl)O3)cc2)CC1 (centres unmarked) [ketoconazole]
Mean (SD) % of Uninhibited Control [12]: 52.4 (4.26) %
inhibition at 3 µM [13]: 47.6%
activity ([13]; voriconazole 0.5 µM): 49.8%
activity ([13]; voriconazole 1 µM): 48.4%
activity ([13]; voriconazole 2 µM): 53.6%
activity ([13]; voriconazole 3 µM): 57.9%

Molecule: Nc1ccc(S(=O)(=O)Nc2ccnn2-c2ccccc2)cc1 [sulfaphenazole]
Mean (SD) % of Uninhibited Control [12]: 63.8 (2.69) %
inhibition at 3 µM [13]: 36.2%
activity ([13]; voriconazole 0.5 µM): 64.8%
activity ([13]; voriconazole 1 µM): 60.7%
activity ([13]; voriconazole 2 µM): 62.6%
activity ([13]; voriconazole 3 µM): 66.9%

B1: rhCYP2C19 (Homo sapiens) (protein)
chain: MDPFVVLVLCLSCLLLLSIWRQSSGRGKLPPGPTPLPVIGNILQIDIKDVSKSLTNLSKIYGPVFTLYFGLERMVVLHGYEVVKEALIDLGEEFSGRGHFPLAERANRGFGIVFSNGKRWKEIRRFSLMTLRNFGMGKRSIEDRVQEEARCLVEELRKTKASPCDPTFILGCAPCNVICSIIFQKRFDYKDQQFLNLMEKLNENIRIVSTPWIQICNNFPTIIDYFPGTHNKLLKNLAFMESDILEKVKEHQESMDINNPRDFIDCFLIKMEKEKQNQQSEFTIENLVITAADLLGAGTETTSTTLRYALLLLLKHPEVTAKVQEEIERVIGRNRSPCMQDRGHMPYTDAVVHEVQRYIDLIPTSLPHAVTCDVKFRNYLIPKGTTILTSLTSVLHDNKEFPNPEMFDPRHFLDEGGNFKKSNYFMPFSAGKRICVGEGLARMELFLFLTFILQNFNLKSLIDPKDLDTTPVVNGFASVPPFYQLCFIPV
Km (not read; rhCYP2C19, pH 7.5): 1.31 (0.862–1.75) µM

B2: rhCYP2C9 (Homo sapiens) (protein)
chain: MDSLVVLVLCLSCLLLLSLWRQSSGRGKLPPGPTPLPVIGNILQIGIKDISKSLTNLSKVYGPVFTLYFGLKPIVVLHGYEAVKEALIDLGEEFSGRGIFPLAERANRGFGIVFSNGKKWKEIRRFSLMTLRNFGMGKRSIEDRVQEEARCLVEELRKTKASPCDPTFILGCAPCNVICSIIFHKRFDYKDQQFLNLMEKLNENIKILSSPWIQICNNFSPIIDYFPGTHNKLLKNVAFMKSYILEKVKEHQESMDMNNPQDFIDCFLMKMEKEKHNQPSEFTIESLENTAVDLFGAGTETTSTTLRYALLLLLKHPEVTAKVQEEIERVIGRNRSPCMQDRSHMPYTDAVVHEVQRYIDLLPTSLPHAVTCDIKFRNYLIPKGTTILISLTSVLHDNKEFPNPEMFDPHHFLDEGGNFKKSKYFMPFSAGKRICVGEALAGMELFLFLTSILQNFNLKSLVDPKNLDTTPVVNGFASVPPFYQLCFIPV
Km (not read; rhCYP2C9, pH 7.5): 4.06 (3.32–4.81) µM
